Legend:
[1] = system: normal NK cells expanded with K562-aAPC; test: percent inhibition of viability; higher = more inhibition; conditions: 72 h, IL-2 2.5 ng/mL
Method: (§1)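 Drug sensitivity and resistance testing on K562-aAPC-expanded normal NK cells: 5 concentrations (10-fold steps over a 10,000-fold range), 72 h at 37 °C, viability by CellTiter-Glo normalised to DMSO and benzethonium chloride controls; DSS from the fitted curve.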

DERL-7 (IL-2 2.5 ng/mL) [2] = test: as above; conditions: 72 h
IMC-1 (IL-2 20 ng/mL) [3] = test: as above; conditions: 72 h
KAI3 (IL-2 2.5 ng/mL) [4] = test: as above; conditions: 72 h
KHYG-1 (IL-2 2.5 ng/mL) [5] = test: as above; conditions: 72 h
NK-92 (IL-2 2.5 ng/mL) [6] = test: as above; conditions: 72 h
NK-YS (IL-2 2.5 ng/mL) [7] = test: as above; conditions: 72 h
NKL (IL-2 2.5 ng/mL) [8] = test: as above; conditions: 72 h
SNK-6 (IL-2 2.5 ng/mL) [9] = test: as above; conditions: 72 h
YT (IL-2 2.5 ng/mL) [10] = test: as above; conditions: 72 h
[11] = system: normal primary NK cells, pool 1 (3 donors) (IL-2 2.5 ng/mL); test: as above; conditions: 72 h
[12] = system: normal primary NK cells, pool 1 (3 donors), resting (IL-2 0 ng/mL); test: as above; conditions: 72 h
[13] = system: normal primary NK cells, pool 2 (3 donors) (IL-2 2.5 ng/mL); test: as above; conditions: 72 h
[14] = system: normal primary NK cells, pool 3 (3 donors) (IL-2 2.5 ng/mL); test: as above; conditions: 72 h
[15] = system: normal NK cells expanded with K562-aAPC; test: drug sensitivity score (DSS) (DSS units); higher = more sensitive; extreme values may be limits of the assay; conditions: 72 h; IL-2 2.5 ng/mL
Method: as §1

DERL-7 (IL-2 2.5 ng/mL) [16] = test: as above; conditions: 72 h
IMC-1 (IL-2 20 ng/mL) [17] = test: as above; conditions: 72 h
KAI3 (IL-2 2.5 ng/mL) [18] = test: as above; conditions: 72 h
KHYG-1 (IL-2 2.5 ng/mL) [19] = test: as above; conditions: 72 h
NK-92 (IL-2 2.5 ng/mL) [20] = test: as above; conditions: 72 h
NK-YS (IL-2 2.5 ng/mL) [21] = test: as above; conditions: 72 h
NKL (IL-2 2.5 ng/mL) [22] = test: as above; conditions: 72 h
SNK-6 (IL-2 2.5 ng/mL) [23] = test: as above; conditions: 72 h
YT (IL-2 2.5 ng/mL) [24] = test: as above; conditions: 72 h
[25] = system: normal primary NK cells, pool 1 (3 donors) (IL-2 2.5 ng/mL); test: as above; conditions: 72 h
[26] = system: normal primary NK cells, pool 1 (3 donors), resting (IL-2 0 ng/mL); test: as above; conditions: 72 h
[27] = system: normal primary NK cells, pool 2 (3 donors) (IL-2 2.5 ng/mL); test: as above; conditions: 72 h
[28] = system: normal primary NK cells, pool 3 (3 donors) (IL-2 2.5 ng/mL); test: as above; conditions: 72 h

COc1cc2c(cc1O)CC[C@@H]1[C@@H]2CC[C@]2(C)[C@@H](O)CC[C@@H]12 [2-methoxyestradiol] (max concentration tested 10000 nM)
percent inhibition of viability [%]
Conditions	1 nM	10 nM	100 nM	1000 nM	10000 nM
DERL-7 (IL-2 2.5 ng/mL) [2]	-1.82	1.54	2.89	73.2	98.9
IMC-1 (IL-2 20 ng/mL) [3]	-3.9	0.72	-4.99	63.4	98.5
KAI3 (IL-2 2.5 ng/mL) [4]	-6.2	-3.7	1.79	50	57.4
KHYG-1 (IL-2 2.5 ng/mL) [5]	-6.84	-2.25	-0.37	97.8	97.9
NK-92 (IL-2 2.5 ng/mL) [6]	-11.8	-5.92	24.8	96.2	92.4
NK-YS (IL-2 2.5 ng/mL) [7]	-6.42	-2.65	5.43	77.6	66
NKL (IL-2 2.5 ng/mL) [8]	-3.96	-6.41	12.5	85.8	90.6
SNK-6 (IL-2 2.5 ng/mL) [9]	15.9	5.08	4.83	72.8	66.2
YT (IL-2 2.5 ng/mL) [10]	-5.93	2.82	1.11	86.5	92.7
[1]	-7.6	-11.6	-10.8	9.36	53
[11]	-5.08	0.22	-0.63	10	19.8
[12]	-17.5	-7.16	17.8	3.53	29.8
[13]	-5.21	-10.5	-5.24	0.1	16.3
[14]	-10.4	-14	-8.74	-10.1	2.72

Conditions	drug sensitivity score
DERL-7 (IL-2 2.5 ng/mL) [16]	14.2
IMC-1 (IL-2 20 ng/mL) [17]	12.8
KAI3 (IL-2 2.5 ng/mL) [18]	9.37
KHYG-1 (IL-2 2.5 ng/mL) [19]	17.6
NK-92 (IL-2 2.5 ng/mL) [20]	21.1
NK-YS (IL-2 2.5 ng/mL) [21]	15
NKL (IL-2 2.5 ng/mL) [22]	17.5
SNK-6 (IL-2 2.5 ng/mL) [23]	14
YT (IL-2 2.5 ng/mL) [24]	15.9
[15]	4.38
[25]	1.6
[26]	1.87
[27]	0.33
[28]	0

Cc1[nH]c(/C=C2\C(=O)Nc3ccccc32)c(C)c1CCC(=O)O [Orantinib] (max concentration tested 10000 nM)
percent inhibition of viability [%]
Conditions	1 nM	10 nM	100 nM	1000 nM	10000 nM
DERL-7 (IL-2 2.5 ng/mL) [2]	1.12	-2.21	-6.87	-10.2	-8.27
IMC-1 (IL-2 20 ng/mL) [3]	-7.71	-4.44	-5.94	1.86	11
KAI3 (IL-2 2.5 ng/mL) [4]	0.42	1.13	-2.39	7	29.4
KHYG-1 (IL-2 2.5 ng/mL) [5]	-7.11	-2.97	-4.54	8.46	13.8
NK-92 (IL-2 2.5 ng/mL) [6]	-10.9	-1.51	-13.1	11.1	13
NK-YS (IL-2 2.5 ng/mL) [7]	-6.4	-2.5	-1.18	7.48	23.9
NKL (IL-2 2.5 ng/mL) [8]	-19.2	-18.2	-1.7	6.18	14.6
SNK-6 (IL-2 2.5 ng/mL) [9]	-0.4	10.2	3.89	15.8	-2.27
YT (IL-2 2.5 ng/mL) [10]	-3.34	1.08	0.41	8.54	18.7
[1]	-1.66	-4.19	-1.4	6.04	9.43
[11]	-0.7	9.63	7.39	4.16	9.93
[12]	-0.49	20.7	11.4	12.2	21.7
[13]	-0.89	-3.13	6.7	-0.82	5.48
[14]	-4.8	2.21	11.9	-1.68	9.39

Conditions	drug sensitivity score
DERL-7 (IL-2 2.5 ng/mL) [16]	0
IMC-1 (IL-2 20 ng/mL) [17]	0.04
KAI3 (IL-2 2.5 ng/mL) [18]	2.32
KHYG-1 (IL-2 2.5 ng/mL) [19]	0.65
NK-92 (IL-2 2.5 ng/mL) [20]	0.62
NK-YS (IL-2 2.5 ng/mL) [21]	1.86
NKL (IL-2 2.5 ng/mL) [22]	0.67
SNK-6 (IL-2 2.5 ng/mL) [23]	0
YT (IL-2 2.5 ng/mL) [24]	1.23
[15]	0
[25]	0
[26]	3.33
[27]	0
[28]	0
